Legend:
MFN1 and MFN2 = MFN1 and MFN2 gene expression and protein levels; format: cell-based
Procedure: Western blot. Western blots were performed from whole cell lysates (WCL) prepared in lysis buffer containing 50 mM Tris-HCl pH 7.5, 1% Triton X-100, 150 mM NaCl, 5 mM MgCl2, 1 mM EGTA and 10% glycerol in the presence of protease inhibitor cocktail (Roche).
Analysis of mitochondrial biogenesis-related genes by q-PCR. Total RNA was extracted by using RNeasy Mini Kit (Qiagen) followed by cDNA synthesis using the SuperScript IV VILO Master Mix (Thermo Scientific), both performed according to the manufacturer's protocol. q-PCR was performed using the following primers: […]
For the q-PCR reaction, Power SYBR Green master mix (Thermo Scientific) was used according to the manufacturer's instructions. Briefly, each reaction consisted of 10 ng cDNA, 5 μL Power SYBR Green master mix, 200 nM primers (forward and reverse), and RNase-free water up to 10 μL. q-PCR was performed on the ViiA 7 Real-Time PCR System (Thermo Scientific) with the following cycle parameter: 95° C. for 10 min, 40 cycles of 95° C. for 15 s, and 60° C. for 1 min. q-PCR products were analyzed by melting curves for unspecific products or primer dimer formation. Rpl39 was used as housekeeping gene and 2^−ΔΔCT method was applied to determine the relative mRNAs expression.

[1] = test system: mitochondrial biogenesis markers; test: Mitochondrial biogenesis markers by q-PCR; format: cell-based
Procedure: Analysis of mitochondrial biogenesis-related genes by q-PCR. Total RNA was extracted by using RNeasy Mini Kit (Qiagen) followed by cDNA synthesis using the SuperScript IV VILO Master Mix (Thermo Scientific), both performed according to the manufacturer's protocol. q-PCR was performed using the following primers: For the q-PCR reaction, Power SYBR Green master mix (Thermo Scientific) was used according to the manufacturer's instructions. […] Rpl39 was used as housekeeping gene and 2^−ΔΔCT method was applied to determine the relative mRNAs expression.

MEFs [2] = test: Mitochondrial respiration in cellulo (OCR, Seahorse XF24); format: cell-based, mouse; conditions: WT MEFs; MASM7 1 μM or MFI8 20 μM, 6 hrs
Procedure: Mitochondrial respiration in cellulo. Mitochondrial oxygen consumption rates (OCR) were assessed using a XF24 Analyzer (Seahorse Biosciences, Billerica MA, USA). In brief, 3×10^4 MEFs were cultured in a XF24 cell culture microplate containing DMEM supplemented with 10% fetal bovine serum. […] OCR was normalized to cell number or total protein content per well for each condition tested.

MEFs [3] = test: RNA-seq gene expression; format: cell-based, mouse
From the text: RNA-seq. Sequencing results were demultiplexed and converted to FASTQ format using Illumina bcl2fastq software. The sequencing reads were adapter and quality trimmed with Trimmomatic and then aligned to the mouse genome (build mm10/GRCm38) using the splice-aware STAR aligner. The featureCounts program was utilized to generate counts for each gene based on how many aligned reads overlap its exons. These counts were then normalized and used to test for differential expression using negative binomial generalized linear models implemented by the DESeq2 R package.

MEFs [4] = test: Caspase-3/7 activation assay; format: cell-based, mouse
Procedure: (§1) Caspase-3/7 activation assay. Cells (5×10^3 cells/well) were seeded in a 96-well white plate and treated with MASM7, MFI8. Caspase 3/7 activation was measured after 6 hr by addition of the Caspase-Glo 3/7 reagent according to the manufacturer's protocol (Promega). Luminescence was detected by a F200 PRO microplate reader (TECAN). Caspase assays were performed in at least triplicate and the data normalized to vehicle-treated control wells. Dilutions of MASM7 or MFI8 were performed using a TECAN D300e Digital Dispenser from 10 mM stocks.

U2OS cells [5] = test: Caspase-3/7 activation assay in U2OS cells; format: cell-based
Procedure: as §1

THP-1 cells = test: Cell death with BV6 in THP-1 cells; format: cell-based
Procedure: (§2) Cell death assay. Cells (2×10^5 cells/well) were seeded in a 6-well plate and treated with the indicated drugs for 6 hours. Cells were dissociated using Accutase (Thermo Fisher; Cat. #00-4555-56) in order to avoid accidental exposure of phosphatidylserine on the outer plasma membrane. Cell death was evaluated with Dead Cell Apoptosis Kit with Annexin V Alexa Fluor™ 488 & Propidium Iodide (Thermo Fisher; Cat. #V13241) according to manufacturer's protocol. Data was acquired by BD LSRII flow cytometer system using BD FACSDiva software. Data was analyzed by FlowJo (BD).

U2OS cells [6] = test: Cell death with BV6 in U2OS cells; format: cell-based
Procedure: as §2

H508 cells = test: Cell viability, colon cancer cells; format: cell-based; conditions: H508, 72 hr, Cell titer Glo
Procedure: (§3) Cell titer Glo was used to measure viability. Cells were treated with MFI8 for 72 hr (n=3, mean±SD).
(§4) Cell viability assay. Cells (5×10^3 cells/well) were seeded in a 96-well white plate and treated with serial dilutions of MASM7 or MFI8. Cell viability was assayed after 72 hrs by addition of CellTiter-Glo reagent according to the manufacturer's protocol (Promega). Luminescence was measured using a F200 PRO microplate reader (TECAN). Viability assays were performed in at least triplicate and the data normalized to vehicle-treated control wells. Dilutions of MASM7 or MFI8 were performed using a TECAN D300e Digital Dispenser from 10 mM stocks.

HT29 cells = test: Cell viability, colon cancer cells; format: cell-based; conditions: HT29, 72 hr, Cell titer Glo
Procedure: as §3, §4

Calu-6 cells = test: Cell viability, lung cancer cells; format: cell-based; conditions: Calu-6, 72 hr, Cell titer Glo
Procedure: as §3, §4

H2405 cells = test: Cell viability, lung cancer cells; format: cell-based; conditions: H2405, 72 hr, Cell titer Glo
Procedure: as §3, §4

U2OS cells [7] = test: Mitochondrial fusion in U2OS cells

Compound: Cc1cccc(NC(C)c2cc(Cl)ccc2O)c1C (stereo not shown) [MFI8, 4-Chloro-2-(1-((2,3-dimethylphenyl)amino)ethyl)phenol]
- MFN1 and MFN2 gene expression and corresponding protein levels (MFN1 and MFN2): neither MASM7 nor MFI8 altered
- gene expression levels of mitochondrial biogenesis markers [1]: no alteration
- respiration and mitochondrial ATP production (OCR) (MEFs [2]): reduced respiration and mitochondrial ATP production
- expression of genes involved in DNA damage response (MEFs [3]; MEFs): up-regulated several genes that are involved in DNA damage response
- gene expression of subunits of the respiratory complexes (MEFs [3]; RNA-seq): reduced the gene expression of several nuclear-encoded subunits of the respiratory complexes
- caspase-3/7 activity (MEFs [4]; 6 hr, Caspase-Glo 3/7): concentration-responsively increased caspase-3/7 activity
- caspase 3/7 activity (MEFs [4]; deletion of APAF-1): detrimental for the capacity of MFI8 to increase caspase 3/7 activity
- caspase-3/7 activity (MEFs [4]; deletion of MFN1/MFN2): impaired the capacity of MFI8 to increase caspase-3/7 activity
- caspase-3/7 activation (U2OS cells [5]): induced caspase-3/7 activation
- cell death in combination with BV6 (THP-1 cells): synergistically induce cell death
- cell death in combination with BV6 (U2OS cells [6]): synergistically induce cell death
- viability (H508 cells): concentration responsively reduces viability
- viability (HT29 cells): concentration responsively reduces viability
- viability (Calu-6 cells): concentration responsively reduces viability
- viability (H2405 cells): concentration responsively reduces viability
- mitochondrial fusion (U2OS cells [7]): inhibited mitochondrial fusion

— patent US20240366540A1, “MITOFUSIN INHIBITORS AND USES THEREOF” (Albert Einstein College of Medicine, priority 2021, published 2024)
